ChEMBL document CHEMBL5726156, “Pyridone or pyrimidone derivative, preparation method therefor and application thereof” (2019)

Biological target: Coagulation factor XI (Homo sapiens, UniProt P03951)
Experiment: In Vitro Inhibitory Effect of the Compounds of the Present Invention on the Enzymatic Activity of Blood-Coagulation Factor XIa: The following method was used to test the in vitro inhibitory effect of the compounds of the present invention on the activity of human blood-coagulation factor XIa, expressed by the Inhibition constant Ki.Solution preparation: reaction buffer: 0.03M HEPES acid, 0.145M NaCl, 0.005 M KCl, 0.1% PEG-8000, pH=7.5;HEPES 8.499 g, NaCl 8.47 g, KCl 0.3725, PEG 8000 1 g, plus ddH2O 800 ml; the pH was adjusted to 7.4 with HCl, and the volume was metered to 1 L.S2366 substrate stock solution (2 mM): a volume of substrate ([…]) was dissolved in 23 ml sterile deionized water, aliquoted, and stored at 4° C. in darkness.S2366 substrate working solution: the stock solution was diluted by 4 folds with the reaction buffer before use.FXIa working solution: 1 μl FXIa stock solution was added to 10 ml reaction buffer and thoroughly mixed before use.Method: 15 μl test sample working solution (15 μl DMSO for the control group) and 75 μl FXIa working solution were added to a 96-well plate, and incubated at room temperature for 15 min. Then 60 μl S2366 substrate working solution was added to initiate the reaction. […]

Coagulation factor XI, sequence (P03951 19-387 limits assumed): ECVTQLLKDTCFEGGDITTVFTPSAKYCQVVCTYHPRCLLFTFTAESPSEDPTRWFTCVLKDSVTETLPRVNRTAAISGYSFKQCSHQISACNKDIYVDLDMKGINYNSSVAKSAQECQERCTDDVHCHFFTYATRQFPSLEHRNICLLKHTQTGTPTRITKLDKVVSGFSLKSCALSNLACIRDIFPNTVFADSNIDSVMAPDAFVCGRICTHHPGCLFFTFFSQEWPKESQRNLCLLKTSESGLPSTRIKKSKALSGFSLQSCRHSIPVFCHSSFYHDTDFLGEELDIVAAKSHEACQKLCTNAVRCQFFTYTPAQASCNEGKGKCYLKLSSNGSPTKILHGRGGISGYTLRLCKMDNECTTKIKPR
Coagulation factor XI, sequence (P03951 388-625 limits assumed): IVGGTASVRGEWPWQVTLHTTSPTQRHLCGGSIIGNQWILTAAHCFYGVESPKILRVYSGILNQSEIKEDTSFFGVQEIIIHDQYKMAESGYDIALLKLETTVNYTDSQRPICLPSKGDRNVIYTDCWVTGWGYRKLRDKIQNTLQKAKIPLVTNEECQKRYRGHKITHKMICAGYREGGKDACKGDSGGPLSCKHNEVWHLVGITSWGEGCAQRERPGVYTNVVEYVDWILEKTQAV

`COC(=O)Nc1ccc(NC(=O)C2CCc3cc(-c4cc(Cl)ccc4-n4cnnn4)cc(=O)n32)cc1` (stereo unspecified) showed a Ki of 0.344 µM.
